From ChEMBL document CHEMBL1201862, “PubChem BioAssay data set” (2004)
Active and inactive are the calls of the source.

What was measured:
[1] = target: Cytochrome P450 2C19 (Homo sapiens, UniProt P33261); assay: Cytochrome panel assay with activity outcomes. Panel member name: p450-cyp2c19 Compounds with AC50 equal or less than 10 uM are considered active; assay type: functional
[2] = Trypanosoma cruzi growth suppression in host cells – NIH3T3 host cells, beta-gal luminescence, confirmation (AID 2044); assay type: functional, cell-based;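 also: intracellular parasites grown in NIH/3T3 mouse fibroblasts as host cells; luminescent beta-galactosidase reporter signal from transgenic T. cruzi replicating inside host cells; inhibitors lower the luminescence signal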
[3] = NIH3T3 cell viability loss – ATP luminescence, mouse fibroblasts, counter-screen, dose response (AID 2010); assay type: functional, cell-based;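 also: cells exposed to compound for about 90 hours before reading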
[4] = target: Cytochrome P450 2C9 (Homo sapiens, UniProt P11712)
Cytochrome P450 2C9, sequence (P11712 whole entry): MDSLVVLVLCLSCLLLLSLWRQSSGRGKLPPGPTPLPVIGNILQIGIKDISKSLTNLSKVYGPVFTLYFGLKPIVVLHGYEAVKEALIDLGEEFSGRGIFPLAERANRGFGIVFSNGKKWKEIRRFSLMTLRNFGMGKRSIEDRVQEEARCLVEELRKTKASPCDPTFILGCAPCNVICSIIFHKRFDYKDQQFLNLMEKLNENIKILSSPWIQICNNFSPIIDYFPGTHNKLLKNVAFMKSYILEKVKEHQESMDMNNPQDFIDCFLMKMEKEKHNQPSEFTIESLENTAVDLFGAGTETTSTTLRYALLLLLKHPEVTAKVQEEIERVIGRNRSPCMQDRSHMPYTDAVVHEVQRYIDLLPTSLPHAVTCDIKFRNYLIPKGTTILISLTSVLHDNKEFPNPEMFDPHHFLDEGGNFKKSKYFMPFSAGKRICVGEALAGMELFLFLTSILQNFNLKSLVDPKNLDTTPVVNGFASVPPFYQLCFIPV

[5] = target: T1, Cytochrome P450 1A2 (Homo sapiens, UniProt P05177)
T1 sequence (P05177 whole entry): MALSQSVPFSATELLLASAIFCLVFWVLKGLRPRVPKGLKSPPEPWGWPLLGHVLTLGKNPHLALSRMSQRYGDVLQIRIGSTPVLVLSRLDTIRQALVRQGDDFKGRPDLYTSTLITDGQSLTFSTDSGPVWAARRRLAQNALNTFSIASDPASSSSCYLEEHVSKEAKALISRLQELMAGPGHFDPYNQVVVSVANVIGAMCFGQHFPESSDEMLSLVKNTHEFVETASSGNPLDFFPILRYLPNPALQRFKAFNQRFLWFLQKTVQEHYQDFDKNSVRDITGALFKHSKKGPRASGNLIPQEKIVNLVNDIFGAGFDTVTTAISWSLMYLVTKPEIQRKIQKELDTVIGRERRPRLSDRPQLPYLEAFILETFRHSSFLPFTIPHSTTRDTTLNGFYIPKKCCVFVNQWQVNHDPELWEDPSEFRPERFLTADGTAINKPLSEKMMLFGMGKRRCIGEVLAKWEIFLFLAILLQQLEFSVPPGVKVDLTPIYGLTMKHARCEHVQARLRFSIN

[6] = target: T2, Streptokinase A (Streptococcus pyogenes serotype M1, UniProt P10520); assay: viability-normalized secreted streptokinase activity reduction – plasminogen activation absorbance, OD405, dose response (AID 1914); assay type: functional, Streptococcus pyogenes M1 GAS;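 also: secreted streptokinase activity via plasminogen activation per viability signal from cell pellet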
T2 sequence (P10520 whole entry): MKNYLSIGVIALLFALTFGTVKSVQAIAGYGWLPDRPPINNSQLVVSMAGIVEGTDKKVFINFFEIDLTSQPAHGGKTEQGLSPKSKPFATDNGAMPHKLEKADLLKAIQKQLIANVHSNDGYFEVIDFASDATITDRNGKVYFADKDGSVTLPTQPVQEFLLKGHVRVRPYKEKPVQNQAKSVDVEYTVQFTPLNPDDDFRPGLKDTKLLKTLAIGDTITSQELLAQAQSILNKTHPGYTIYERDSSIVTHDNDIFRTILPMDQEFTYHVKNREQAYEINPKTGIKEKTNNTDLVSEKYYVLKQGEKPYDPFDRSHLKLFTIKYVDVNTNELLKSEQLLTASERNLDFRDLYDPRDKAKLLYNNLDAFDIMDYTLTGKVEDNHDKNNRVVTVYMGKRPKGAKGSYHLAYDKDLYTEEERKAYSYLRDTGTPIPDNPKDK

[7] = system: Streptococcus sp. 'group A'; assay: Streptococcus pyogenes SK(-)GAS viability under kanamycin – luminescence, BacTiterGlo, confirmation, counter-screen for streptokinase expression inhibitor project, dose response (AID 1900); assay type: functional, organism-based
[8] = system: Streptococcus; assay: GAS UMAA2166 growth inhibition – luminescence, BacTiterGlo, counter-screen for streptokinase expression inhibitor project, dose response (AID 1915); assay type: functional, organism-based;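 also: potency for reduction of bacterial viability or growth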
[9] = target: T3, Rac GTPase-activating protein 1 (Homo sapiens, UniProt Q9H0H5); assay: blockers of MgcRacGAP-driven Rac1 GTP hydrolysis – biochemical, ADP Hunter fluorescence, primary and confirmatory, confirmation (AID 624330); assay type: functional
T3 sequence (Q9H0H5 whole entry): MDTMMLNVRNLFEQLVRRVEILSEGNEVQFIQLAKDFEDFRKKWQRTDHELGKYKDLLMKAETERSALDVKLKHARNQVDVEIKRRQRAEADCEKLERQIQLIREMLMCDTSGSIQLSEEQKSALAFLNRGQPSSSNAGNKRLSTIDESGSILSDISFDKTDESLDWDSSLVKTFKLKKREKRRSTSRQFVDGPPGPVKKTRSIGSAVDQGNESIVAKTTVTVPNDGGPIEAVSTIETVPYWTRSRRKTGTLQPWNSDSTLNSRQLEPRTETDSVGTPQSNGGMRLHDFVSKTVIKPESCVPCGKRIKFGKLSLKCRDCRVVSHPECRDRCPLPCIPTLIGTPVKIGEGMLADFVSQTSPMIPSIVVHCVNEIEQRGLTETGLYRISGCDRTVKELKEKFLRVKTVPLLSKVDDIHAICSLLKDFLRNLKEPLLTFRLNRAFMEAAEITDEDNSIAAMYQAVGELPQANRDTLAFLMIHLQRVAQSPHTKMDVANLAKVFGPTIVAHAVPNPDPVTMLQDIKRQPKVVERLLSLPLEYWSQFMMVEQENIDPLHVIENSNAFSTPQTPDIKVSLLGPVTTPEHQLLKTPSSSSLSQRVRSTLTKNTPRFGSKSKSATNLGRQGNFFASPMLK

[10] = alpha-synuclein stem-loop luciferase translation blockers – H4 neuroglioma cells, luminescence, confirmation (AID 1988); assay type: functional, cell-based
[11] = luciferase reporter signal suppression in cells – H4 neuroglioma cells, luminescence, dose response (AID 1990); assay type: functional, cell-based

Cytochrome P450 2C19, sequence (P33261 whole entry): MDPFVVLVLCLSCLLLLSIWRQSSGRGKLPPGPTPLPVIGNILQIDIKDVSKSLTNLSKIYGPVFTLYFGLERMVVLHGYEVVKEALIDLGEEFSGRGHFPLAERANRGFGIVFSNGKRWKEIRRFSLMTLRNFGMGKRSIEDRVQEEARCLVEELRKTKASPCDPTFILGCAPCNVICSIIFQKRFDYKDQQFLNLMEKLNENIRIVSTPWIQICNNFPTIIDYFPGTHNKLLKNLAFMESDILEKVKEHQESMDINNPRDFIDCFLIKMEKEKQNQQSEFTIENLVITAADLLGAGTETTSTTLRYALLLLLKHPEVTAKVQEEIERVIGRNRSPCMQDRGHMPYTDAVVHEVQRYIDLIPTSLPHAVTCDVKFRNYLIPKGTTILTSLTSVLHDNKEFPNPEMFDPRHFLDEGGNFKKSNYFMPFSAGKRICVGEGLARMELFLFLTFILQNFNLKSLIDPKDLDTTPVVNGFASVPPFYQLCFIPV

With CN1CCN(c2ncc3nc(-c4ccccc4)c(=O)n(Cc4ccc(F)cc4)c3n2)CC1 the AC50 ([1]; read-out: AC50) was 39.8 µM (inconclusive).
For COc1ccc2[nH]c(C(=O)N3CCCN(Cc4ccc(F)cc4)CC3)cc2c1, the EC50 [2] was 0.23 µM (active) and the EC50 [3] was > 60 µM (not active).
With COc1ccc(C2=NCC(CSc3nnc(-c4ccc5c(c4)OCO5)o3)S2)cc1 (centres undefined) the EC50 [2] was 0.62 µM (active) and the EC50 [3] was > 60 µM (not active).
In the case of Cc1ccc(OC(=O)N2CCOCC2)cc1, the AC50 ([1]; read-out: AC50) is reported as 28.2 µM (inconclusive), the AC50 [4] is reported as 39.8 µM (inconclusive) and the AC50 [5] is reported as 17.8 µM (inconclusive).
With Cc1cccc(C(=O)NCC(=O)N2CCOCC2)c1 the EC50 [6] was > 150 µM (not active), the EC50 [7] was > 150 µM (not active) and the EC50 [8] was > 150 µM (not active).
For Cc1ccccc1N=C(S)N1CCCC(c2nc3ccccc3[nH]2)C1 (centres undefined), the EC50 [2] was 1.28 µM (active) and the EC50 [3] was > 60 µM (not active).
For COC(=O)[C@@]1(Cc2ccc(F)cc2)[C@H]2c3cc(C(=O)N4CCCC4)n(CCO)c3C[C@H]2CN1C(=O)c1ccccc1, the AC50 ([1]; read-out: AC50) was 39.8 µM (inconclusive) and the AC50 [5] was 25.1 µM (inconclusive).
In the case of Cc1ccc(CONC(=O)/N=C/N(C)C)cc1, the AC50 [5] is reported as 28.2 µM (inconclusive).
For O=c1c(-c2cc(F)cc(F)c2)nc2cnc(Oc3ccccc3)nc2n1C1CC1, the AC50 [4] was 10 µM (inconclusive).
For CC(=O)N(CCC(Cc1ccccc1)c1ccc2c(c1)OCO2)Cc1ccc(Cl)cc1 (centres undefined), the EC50 [6] was 58.5 µM (active), the EC50 [7] was 7.09 µM (active) and the EC50 [8] was 12.4 µM (active).
For CC(=O)CSc1nnc(Cc2ccc([N+](=O)[O-])cc2)o1, the AC50 [4] was 35.5 µM (inconclusive) and the AC50 [5] was 15.8 µM (inconclusive).
For CCn1c(SCc2ccc(C)cc2)nnc1-c1nn(-c2ccccc2)ccc1=O, the AC50 [1] was “inconclusive”.
With O=C1c2ccccc2NC(c2ccc(O)cc2)N1/N=C/c1ccc(O)cc1 (centres undefined) the IC50 [9] was 66.4 µM (active).
For CCOC(=O)CSc1nnc(CNC(=O)c2ccc(OC)cc2)n1C1CCCCC1, the AC50 ([1]; read-out: AC50) was 10 µM (inconclusive) and the AC50 [5] was 5.01 µM (inconclusive).
With Cc1ccc(O)c(/N=C/c2sc3ccccc3c2Cl)c1 the IC50 [9] was 39.2 µM (active).
For Cn1cc(-c2nc3cnc(Oc4ccccc4)nc3n(Cc3cccs3)c2=O)c2ccccc21, the AC50 [5] was 3.16 µM (inconclusive).
In the case of COc1ccc(OC)c2c(C)c(C)[nH]c12, the IC50 [9] is reported as 29.5 µM (active).
For COc1ccc(N[C@@H]2CCN3C(=O)c4ccccc4[C@@H]3C[C@H]2O)cc1, the IC50 [9] was 74.8 µM (active).
With Cc1sc2nc(CN3CCOCC3)nc(N3CCOCC3)c2c1C the IC50 [9] was 191 µM (active).
In the case of COC(=O)[C@@H]1[C@@H](O)[C@]2(O)c3ccccc3O[C@]2(c2ccccc2)[C@H]1c1ccccc1, the AC50 ([1]; read-out: AC50) is reported as 0.316 µM (inconclusive) and the AC50 [4] is reported as 0.0794 µM (inconclusive).
With CCC(CC)NC(=O)c1oc2ccccc2c1COc1ccccc1 the EC50 [6] was 10.6 µM (active), the EC50 [7] was 9.43 µM (active) and the EC50 [8] was 17 µM (active).
In the case of Cc1nc(C/C(=N\N)c2ccc(O)cc2O)cs1, the IC50 [9] is reported as 64 µM (active).
With O=C(COc1ncnc2cc([N+](=O)[O-])ccc12)NC(=O)NC1CCCCC1 the EC50 [2] was 0.122 µM (active) and the EC50 [3] was > 60 µM (not active).
With O=C(NC(=S)N1CCN(c2ccc(O)cc2)CC1)c1ccco1 the IC50 [9] was 33.1 µM (active).
With Cc1ccc(NCc2ccccc2O)cc1C the IC50 [9] was 118 µM (active).
For Cc1ccccc1OCC(O)Cn1c(NCc2ccccc2)nc2c1c(=O)[nH]c(=O)n2C (centres undefined), the AC50 [4] was 5.62 µM (inconclusive).
In the case of Cc1ccc(-c2cc(C(=O)N3CCN(c4ccccc4O)CC3)c3ccccc3n2)cc1, the EC50 [6] is reported as > 150 µM (not active), the EC50 [7] is reported as 5.39 µM (active) and the EC50 [8] is reported as 26.4 µM (active).
In the case of Cc1ccc(-c2cc3nc(-c4ccc(Br)cc4)cc(N)n3n2)cc1, the EC50 [7] is reported as 1.59 µM (active) and the EC50 [8] is reported as 1.06 µM (active).
In the case of OC[C@@H](O)[C@@H](O)[C@@H](O)[C@@H](O)c1nc2cc(Cl)ccc2[nH]1, the AC50 [5] is reported as 6.31 µM (inconclusive).
With Cc1nc(N2CCCCC2)c2c(C)c(C(=O)Nc3cccc(C(F)(F)F)c3)sc2n1 the EC50 [2] was 1.54 µM (active) and the EC50 [3] was > 60 µM (not active).
For O=c1c(-c2cc(F)cc(F)c2)nc2cnc(N3CCOCC3)nc2n1CCc1ccccc1, the AC50 [5] was 2.51 µM (inconclusive).
In the case of CC1CC(C)(C)Nc2ccc(N=O)cc21 (centres undefined), the EC50 [2] is reported as 2.29 µM (active) and the EC50 [3] is reported as 3.13 µM (active).
With O=C(CC(C(=O)N1CCc2ccccc21)n1ccnc1)N1CCc2ccccc2C1 (centres undefined) the EC50 [2] was 0.276 µM (active) and the EC50 [3] was 11.5 µM (active).
For Cc1ccc(Cn2cccc(NC(=O)NC3CCCCC3)c2=O)cc1, the AC50 [4] was 2.51 µM (inconclusive) and the AC50 [5] was 15.8 µM (inconclusive).
In the case of Nc1ccccc1Nc1cc(-c2cccc(Cl)c2)nn1-c1ccccc1, the EC50 [2] is reported as 4.26 µM (active) and the EC50 [3] is reported as > 60 µM (inconclusive).
For CN(C)CCN(C(=O)c1ccc(S(=O)(=O)N2CCCC2)cc1)c1nc2ccc(Br)cc2s1, the EC50 [2] was 0.122 µM (active) and the EC50 [3] was > 30 µM (not active).
For COc1cc(/C=C/CN2CCN(Cc3ccc(C)o3)C(CCO)C2)ccc1O (centres undefined), the IC50 [9] was 363 µM (active).
In the case of CN/C(=N/c1cc(Cl)ccc1Cl)SC1CC(=O)N(c2ccc(C(=O)OC)cc2)C1=O (centres undefined), the EC50 [6] is reported as > 50 µM (not active).
In the case of O=C(CN1CCN(c2ccc(O)cc2)CC1)Nc1ccccc1C(=O)NCCc1ccccc1, the IC50 [9] is reported as 41.5 µM (active).
For CC(C)C[C@H](NC(=O)c1[nH]cnc1C(=O)N1CCc2ccccc2C1)C(=O)OCc1ccccc1, the EC50 [6] was > 150 µM (not active), the EC50 [7] was 9.76 µM (active) and the EC50 [8] was > 150 µM (not active).
In the case of CCN(CC)c1ccc(/C=C2/C(=O)NC(=O)N(Cc3ccco3)C2=O)cc1, the IC50 [9] is reported as 126 µM (active).
With COc1ccc(NC(=O)c2cc(-c3cc(C)cc(C)c3O)[nH]n2)cc1Cl the EC50 [7] was 2.41 µM (active) and the EC50 [8] was 3.07 µM (active).
In the case of O=C(/C=C(\c1ccc(Cl)cc1)n1cncn1)c1ccc(Cl)cc1, the EC50 [2] is reported as 0.475 µM (active) and the EC50 [3] is reported as > 60 µM (not active).
With CCn1ncc(C(=O)Nc2cc(C)on2)c1C the AC50 ([1]; read-out: AC50) was 15.8 µM (inconclusive) and the AC50 [5] was 15.8 µM (inconclusive).
For Cc1ccc2cc3c(N)c(C(=O)N4CC(=O)Nc5ccccc54)sc3nc2c1, the EC50 [10] was < 0.1 µM (active) and the EC50 [11] was < 0.1 µM (active).
With COc1ccc(C2CC(c3ccccc3)=NN2C(=O)COC(=O)c2cccc(S(=O)(=O)N3CCOCC3)c2)cc1 (centres undefined) the EC50 [2] was 3.37 µM (active) and the EC50 [3] was > 30 µM (not active).
With CS(=O)(=O)Nc1cccc(-c2nc(NCc3cccs3)c3ccccc3n2)c1 the AC50 [4] was 1.26 µM (inconclusive).
In the case of CN(C)C(=O)c1ccc(-c2ccc3ncnc(NC4CCNCC4)c3c2)cc1, the AC50 [5] is reported as 20 µM (inconclusive).
In the case of COc1cc(/C=C\c2ccc(OC)cc2OC)cc(OC)c1, the AC50 [1] is reported as “inconclusive”.
For CCC(C)(C)n1nnnc1C(c1cccc(C#N)c1)N1CCN(c2cc(C)ccc2C)CC1 (centres undefined), the EC50 [2] was 1.73 µM (active) and the EC50 [3] was 32.6 µM (active).
For O=C(c1cccc(F)c1)N1CCC2(CCCN(c3ccccc3)C2)CC1, the AC50 [5] was 15.8 µM (inconclusive).
